Data taken from patent US20060088533A1, “Methods of treating inflammatory bowel disease” (priority 2004, published 2006).

Columns and labels:
EGFR = target: T1, EGFR (Homo sapiens, UniProt P00533); assay: Western blot of EGFR phosphorylation in colonocytes exposed to C. difficile toxin; format: cell-based; settings: for TxB's activation of EGFR: colonocytes preincubated with BAPTA 20uM or GF109203X 1uM before TxB addition
T1 construct: endogenous in cells; host or cells: NCM460 (nontransformed human colonic epithelial cells); HT29 (colonic adenocarcinoma cells)
T1 sequence (P00533 25-1210): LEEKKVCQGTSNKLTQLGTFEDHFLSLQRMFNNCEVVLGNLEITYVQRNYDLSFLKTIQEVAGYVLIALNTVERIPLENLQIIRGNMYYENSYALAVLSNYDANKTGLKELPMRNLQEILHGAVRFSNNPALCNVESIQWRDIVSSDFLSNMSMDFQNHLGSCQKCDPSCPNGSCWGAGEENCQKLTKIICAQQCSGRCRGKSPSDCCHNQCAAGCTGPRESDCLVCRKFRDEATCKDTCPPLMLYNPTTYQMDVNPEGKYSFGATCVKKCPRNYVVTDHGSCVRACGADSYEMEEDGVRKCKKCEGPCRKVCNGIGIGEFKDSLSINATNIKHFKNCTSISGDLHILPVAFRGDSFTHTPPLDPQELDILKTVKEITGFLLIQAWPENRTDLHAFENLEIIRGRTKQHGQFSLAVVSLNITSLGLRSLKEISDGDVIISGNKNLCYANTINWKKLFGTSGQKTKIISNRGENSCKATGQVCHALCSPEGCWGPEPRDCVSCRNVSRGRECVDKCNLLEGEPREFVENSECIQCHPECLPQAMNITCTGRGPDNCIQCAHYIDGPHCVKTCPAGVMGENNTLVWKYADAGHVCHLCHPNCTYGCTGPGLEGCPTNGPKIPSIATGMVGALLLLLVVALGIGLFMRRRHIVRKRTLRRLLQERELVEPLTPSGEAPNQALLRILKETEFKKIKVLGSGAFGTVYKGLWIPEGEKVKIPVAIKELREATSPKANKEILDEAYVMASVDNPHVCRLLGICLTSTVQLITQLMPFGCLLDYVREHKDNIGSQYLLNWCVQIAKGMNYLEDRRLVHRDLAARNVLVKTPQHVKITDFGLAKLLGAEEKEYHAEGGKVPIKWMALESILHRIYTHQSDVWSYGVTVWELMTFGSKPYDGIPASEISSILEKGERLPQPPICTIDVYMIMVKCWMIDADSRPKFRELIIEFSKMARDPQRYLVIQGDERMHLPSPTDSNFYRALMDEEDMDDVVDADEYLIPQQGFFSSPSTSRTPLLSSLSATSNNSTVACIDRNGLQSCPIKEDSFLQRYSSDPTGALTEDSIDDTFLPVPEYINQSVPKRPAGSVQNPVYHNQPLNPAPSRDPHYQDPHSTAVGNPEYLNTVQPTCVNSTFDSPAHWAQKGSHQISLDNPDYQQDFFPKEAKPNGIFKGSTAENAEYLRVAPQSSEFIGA

ERK1/2 = assay: Western blot of ERK1/2 phosphorylation in colonocytes exposed to C. difficile toxin or LPA; format: cell-based, human; settings: for TxB's activation of ERK: colonocytes preincubated with BAPTA 20uM or GF109203X 1uM before TxB addition
Description: NCM460 or HT29 cells were seeded in 12 well plates and grown to 70%-100% confluency. Cells were serum starved overnight prior to experiments. TxB or TxA were added in serum free medium at the indicated concentrations for varying lengths of time. Cells were then washed three times with ice cold phosphate buffered saline (PBS) and lysed in 1×SDS sample buffer (Cell Signaling Technology, Beverly, Mass.). Equal amounts of cell lysates were loaded onto 10% SDS-PAGE gels and transferred to nitrocellulose membranes (Bio-Rad Laboratories, Hercules, Calif.). Blots were probed with each primary antibody overnight at 4° C. and then with species-specific secondary antibodies coupled with horseradish peroxidase for 1 hour at room temperature. Peroxidase activity was detected by SuperSignal Chemiluminescent Substrate (Pierce, Rockford, Ill.). Signals were analyzed and quantified as described (Na, X. et al., EMBO J., 22:4249-4259 (2003)) and results were expressed as mean ±SD.

TGF-α = TGF-α secretion ELISA; format: cell-based, human; settings: NCM460 cells; GM6001 25 μM 30 minutes prior to TxB for 1 or 3 hours; versus DMSO
Description: TGF-α secretion from colonocyte cultures was measured by enzyme-linked immunosorbent assay. Briefly, 96-well Nunc-immuno plates (Fisher Scientific) were coated with 0.4 ug/ml of TGF-α antibody diluted in PBS overnight at room temperature. Wells were blocked with PBS containing 1% BSA for 1 hour after washing 3 times with PBST (PBS with 0.1% Twin-20). Fifty μl of conditioned media or serial dilutions of TGF-α in PBS containing 1% BSA were then added to each well. After 2 hours, wells were washed and incubated with 0.3 μg/ml biotin-conjugated anti-TGF-α antibody for 1 hour. Streptavidin-horseradish peroxidase (1:1500) from Amersham Bioscience (Amersham, UK) was added to the wells. Peroxidase activity was measured by TMB Peroxidase Substrate Reagents (KPL Inc, Gaithersburg, Md.).

Rho = assay: C3 exoenzyme-catalyzed ADP-ribosylation assay (TxB-induced Rho glucosylation); format: cell-based, human; settings: NCM460 cells; EGFR antibody 20 μg/ml or AG1478 0.5 μM 30 minutes, then TxB 20 nM 1 hour
NCM460 cells = assay: Cell rounding assay; format: cell-based, human; settings: EGFR antibody 20 μg/ml or AG1478 0.5 μM 30 minutes, then TxB 20 nM 1 hour
Description: NCM460 cells were seeded on glass cover slides overnight. […] Cells were then fixed with formaldehyde for 10 minutes and rinsed three times in PBS. Percentage of cell rounding was quantitated by phase-contrast microscopy.

IL-8 [1] = settings: cited from earlier work
IL-8 promoter = assay: IL-8 luciferase promoter assay; format: cell-based, human; settings: NCM460 cells; inhibitor 30 minutes, then TxB 20 nM 16 hours; versus DMSO
Description: A 1521-bp fragment (nucleotides −1481 to +40) of the promoter region of the human IL-8 gene was used to monitor transcription of IL-8 gene as previously described (Keates, S. et al., J. Biol. Chem., 276:48127-48134 (2001)). Cells were grown on 24-well plates and transiently transfected with the IL-8 promoter luciferase construct and a control luciferase construct pRL-TK (Promega Corp., Madison, Wis.) using Superfect (Qiagen Inc., Chatsworth, Calif.). Transfected cells were serum starved overnight and then exposed to TxB and/or pharmacological inhibitors at the indicated times. Cells were lysed, and firefly and renilla luciferase activities in cell extracts were measured using Dual-Luciferase Reporter Assay System (Promega Corp., Madison, Wis.). The relative luciferase activity was calculated by normalizing IL-8 promoter-driven firefly luciferase activity to control Renilla luciferase activity. Data from all experiments are represented as the relative luciferase activity (mean ±SD) from at least three independent sets of experiments, each with triplicate measurements.

IL-8 [2] = settings: cited from earlier work; remark: listed apart in the source

O=C(O)CN(CC(=O)O)c1ccccc1OCCOc1ccccc1N(CC(=O)O)CC(=O)O [BAPTA]
TxB's activation of EGFR (EGFR): decreased | TxB's activation of ERK (ERK1/2): decreased

CNC(=O)[C@H](Cc1c[nH]c2ccccc12)NC(=O)[C@@H](CC(=O)NO)CC(C)C [GM6001]
Activation of the EGFR induced by TxB (EGFR; NCM460 cells, BB94 or GM6001 25 μM 30 minutes prior to TxB 20 nM, versus DMSO at 60 minutes): significantly inhibited | TxB-induced TGF-α secretion (TGF-α): significantly inhibited | Activation of ERK1/2 induced by TxB (ERK1/2; NCM460 cells, BB94 3 mg/ml or GM6001 25 μM 30 minutes prior to TxB 20 nM, versus DMSO at 60 minutes): significantly inhibited

COc1cc2ncnc(Nc3cccc(Cl)c3)c2cc1OC [AG1478, tyrphostin AG1478]
TxB-induced Rho glucosylation (Rho): neither an EGFR antibody, nor a specific EGFR inhibitor, AG1478, altered | TxB-induced cell rounding (NCM460 cells): neither an EGFR antibody, nor a specific EGFR inhibitor, AG1478, altered | IL-8 production mediated by neurotensin (IL-8 [1]): significantly reduced | TxB-mediated IL-8 expression (IL-8 promoter): significantly inhibited | IL-8 production mediated by H. pylori (IL-8 [2]): significantly reduced | Activation of ERK1/2 by TxB (ERK1/2; NCM460 cells, AG1478 0.2-1.0 uM for 30 minutes, then TxB 20 nM 60 minutes): completely blocked

CN(C)CCCn1cc(C2=C(c3c[nH]c4ccccc34)C(=O)NC2=O)c2ccccc21 [GF109203X]
TxB's activation of EGFR (EGFR): decreased | TxB's activation of ERK (ERK1/2): decreased

COc1cccc(-c2cc(=O)c3ccccc3o2)c1N [PD98059]
TxB-mediated IL-8 expression (IL-8 promoter): significantly inhibited
